These results are taken from ChEMBL document CHEMBL5727938, “HIV protease inhibitors” (2020).

A short description of this test: MT-4 HIV High Resolution Antiviral Assay: Assay protocol is identical to that described for the MT-4 antiviral assay with the following changes: Each drug is run in 2 series of quadruplicates with different starting concentrations for each series and 19 1.5 fold dilutions performed across the plate. […] Data is analyzed and Hill coefficients determined in Graph Pad Prism (San Diego, Calif.).

As a reminder, the EC50 is the concentration at which the effect is half-maximal. The low end stands for a more potent agent, the high end for a less potent agent. In turn, `CC(C)(C)C[C@]1(c2ccc(-c3ccn(C4CC4)n3)cc2)NC(=N)C([C@H](COC(=O)NC2(C(F)(F)F)CC2)c2ccc(Cl)c(-n3ncnc3C(F)F)c2)C1=O` (stereo partly drawn) registered an EC50 of 11.5 nM.

`CC(C)(C)C[C@]1(c2ccc(-c3cnn(C4CC4)n3)c(F)c2)NC(=N)N([C@H](COC(=O)NC2(C(F)(F)F)CC2)c2ccc(Cl)c(-c3ncnn3C(F)F)c2)C1=O` displayed an EC50 of 7.92 nM. With `CC(C)(F)C[C@H]1C(=O)N([C@H](COC(=O)NC(C)(C)C(F)F)c2ccc(Cl)c(-c3ncnn3C(F)F)c2)C(=N)N1c1ccc(Br)cc1` the figure was 242 nM; with `CC(C)(C)C[C@]1(c2ccc(-c3cnn(C4CC4)n3)cc2)NC(=N)N([C@H](COC(=O)NC2(C(F)(F)F)CC2)c2ccc(Cl)c(-c3ncnn3C(F)F)c2)C1=O`, 16.5 nM; with `CC(C)(C)C[C@]1(c2ccc(-c3cnn(C(F)F)c3)cc2)NC(=N)N([C@H](COC(=O)NC2(C(F)(F)F)CC2)c2ccc(Cl)c(-n3ncnc3C(F)F)c2)C1=O`, 28.1 nM.

In turn, `CC(C)(C)C[C@]1(c2ccc(-c3nncn3C(F)F)cc2F)NC(=N)N([C@H](COC(=O)C2(C(F)(F)F)CC2)c2ccc(Cl)c(-n3ncnc3C(F)F)c2)C1=O` yielded an EC50 of 76.7 nM. For the compound `CC(C)(C)C[C@]1(c2ccc(-c3cnn(C(F)F)c3)c(F)c2F)NC(=N)N([C@H](COC(=O)NC2(C)CC2)c2ccc(Cl)c(-n3cncn3)c2)C1=O`, the EC50 is 8.79 nM. On to `CC(C)(C)C[C@H]1C(=O)N([C@H](COC(=O)NC2(C(F)(F)F)CC2)c2ccc(F)c(-c3ncnn3C(F)F)c2)C(=N)N1c1ccc(-c2cnn(C(F)F)c2)cc1`, for which the 50% effective concentration (EC50) was 28.1 nM. Consider `CC(C)(C)C[C@]1(c2ccc(-c3ncccn3)cc2)NC(=N)N([C@H](COC(=O)NC2(C(F)(F)F)CC2)c2ccc(Cl)c(C3=NC=NC3C(F)F)c2)C1=O` (stereo partly drawn), for which a half-maximal response (EC50) required 6.81 nM. `CC(C)(C)C[C@]1(c2ccc(-c3cnn(C(F)F)c3)cc2)NC(=N)N([C@H](COC(=O)NC2(C(F)(F)F)CC2)c2ccc(-n3ncnc3C(F)F)cc2)C1=O` showed a half-maximal effective concentration (EC50) of 134 nM. `CC(C)(C)C[C@]1(c2ccc(-c3ccn(C4CC4)n3)cc2F)NC(=N)C([C@H](COC(=O)NC2(C(F)(F)F)CC2)c2ccc(Cl)c(-n3ncnc3C(F)F)c2)C1=O` (stereo partly drawn): the half-maximal effective concentration (EC50) turned out to be 18.5 nM. Then `CC(C)(C)C[C@H]1C(=O)N([C@H](COC(=O)NC(C)(C)C(F)F)c2ccc(Cl)c(-c3ncnn3C(F)F)c2)C(=N)N1c1ccc(-c2ncccn2)cc1`, with 12 nM; and `CC(C)(C)C[C@]1(c2ccc(-c3cnccn3)cc2)NC(=N)C([C@H](COC(=O)NC2(C(F)(F)F)CC2)c2ccc(Cl)c(-c3ncn[nH]3)c2)C1=O` (stereo partly drawn), with 80.4 nM.
